Reference: patent publication US9951061B2, “CaMKII inhibitors and uses thereof” (Allosteros Therapeutics, Inc., priority 2013, dated 2018)

Target: T1, CaMKIIδ (Homo sapiens, UniProt Q13557)
T1 construct: His/Gln tag (C)
Assay: In vitro CaMKIIδ activity (inhibition) assay, coupled assay measuring ADP released
Type: biochemical
Conditions: full length C-terminal His/Gln tagged CaMKIIδ construct, 16 nM; peptide substrate AC3; 25° C.
Experimental: An exemplary procedure for the in vitro CaMKIIδ inhibition assay, which can be used to determine the inhibitory action of compounds of the invention toward CaMKII, follows. The procedure is taken from Chao L H, et al., (2010) Nat Struct Mol Biol. 17(3): 264-272, which is incorporated herein by reference in its entirety.
The inhibition of CaMKII activity was evaluated using a coupled assay measuring ADP released following ATP hydrolysis and phosphor-transfer to the peptide substrate AC3 (KKALHRQETVDAL; SEQ ID NO: 1) (1). A full length, C-terminal His/Gln tagged CaMKIIδ construct was used (sequence in Table 2 below).
Compounds were added in 5 uL volume to wells in UV transparent 96-well plates (½ area well size). The final compound concentrations tested ranged from 0.5 nM to 10 uM). Assays were performed in duplicate. CaMKIIδ is added to at a final concentration of 16 nM to a mixture containing 100 mM Tris (pH 7.5), 150 mM KCl, 0.27 mM EGTA, 1.3 mM PEP, 0.2 mg/ml AC3, 6.9% (v/v) PK/LDH mixture (Sigma P0294), 0.38 mM NADH and kept on ice. 72 uL of the enzyme mixture was added to the wells containing compounds and the plate was shaken briefly and kept on ice. The assay was initiated by adding 23 uL of a mixture containing 100 mM Tris (pH 7.5), 150 mM KCl, 1.7 mM CaCl2, 48 mM MgCl2, 0.35 mM ATP and 6.7 ug/mL calmodulin. The rate of ADP released was measured as the rate of absorbance decrease at […] at 25° C. and plotted against the log of the compound concentration (FIG. 1). IC50 data were fitted using GraphPad Prism software.

T1 sequence (Q13557 whole entry, looked up): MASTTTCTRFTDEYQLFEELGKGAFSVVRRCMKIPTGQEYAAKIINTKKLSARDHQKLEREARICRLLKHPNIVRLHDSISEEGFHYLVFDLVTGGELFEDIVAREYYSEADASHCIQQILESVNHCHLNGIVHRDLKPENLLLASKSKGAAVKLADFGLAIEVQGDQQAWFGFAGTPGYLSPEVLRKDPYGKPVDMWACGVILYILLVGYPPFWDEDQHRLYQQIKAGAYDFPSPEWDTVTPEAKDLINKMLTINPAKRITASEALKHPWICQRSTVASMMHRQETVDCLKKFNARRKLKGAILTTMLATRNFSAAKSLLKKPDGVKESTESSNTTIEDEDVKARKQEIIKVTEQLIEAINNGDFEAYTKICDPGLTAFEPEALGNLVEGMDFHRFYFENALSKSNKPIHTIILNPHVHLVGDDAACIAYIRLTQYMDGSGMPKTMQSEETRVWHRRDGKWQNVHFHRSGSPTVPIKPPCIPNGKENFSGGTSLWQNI

Row | SMILES | IC50
1 | N=C(N)Nc1cccc(-c2ccnc3[nH]c4ccccc4c23)c1 [Compound I-4, 1-(3-(9H-pyrido[2,3-b]indol-4-yl)phenyl)guanidine] | 50 to 250 nM
2 | NCCNc1cccc(-c2ccnc3[nH]c4ccc(Cl)cc4c23)c1 [Compound I-14, N1-(3-(6-chloro-9H-pyrido[2,3-b]indol-4-yl)phenyl)ethane-1,2-diamine] | ≤ 50 nM
3 | Nc1cccc(-c2ccnc3[nH]c4ccccc4c23)c1 [Compound I-6, 3-(9H-pyrido[2,3-b]indol-4-yl)aniline] | 50 to 250 nM
4 | Cc1ccc2[nH]c3nccc(-c4cccc(NCCN)c4)c3c2c1 [Compound I-13, N1-(3-(6-methyl-9H-pyrido[2,3-b]indol-4-yl)phenyl)ethane-1,2-diamine] | ≤ 50 nM
5 | Cc1ccc2c(c1)[nH]c1nccc(-c3cccc(NCCN)c3)c12 [Compound I-11] | ≤ 50 nM
6 | N=C(N)NCc1cccc(-c2ccnc3[nH]c4ccccc4c23)c1 [Compound I-5, 1-(3-(9H-pyrido[2,3-b]indol-4-yl)benzyl)guanidine] | 250 to 1000 nM
7 | COc1ccc2c(c1)[nH]c1nccc(-c3cccc(NCCN)c3)c12 [Compound I-12, N1-(3-(7-methoxy-9H-pyrido[2,3-b]indol-4-yl)phenyl)ethane-1,2-diamine] | ≤ 50 nM
8 | c1cc(-c2ccnc3[nH]c4ccccc4c23)cc(-n2ccnc2)c1 [Compound I-2, 4-(3-(1H-imidazol-1-yl)phenyl)-9H-pyrido[2,3-b]indole] | ≥ 1000 nM
9 | c1cc(-c2ccnc3[nH]c4ccccc4c23)cc(N2CCNCC2)c1 [Compound I-1, 4-(3-(piperazin-1-yl)phenyl)-9H-pyrido[2,3-b]indole] | 50 to 250 nM

Now from value to compound:

Row | IC50 | SMILES
10 | ≤ 50 nM | NCCCOc1cccc(-c2ccnc3[nH]c4ccccc4c23)c1 [Compound I-10, 3-(3-(9H-pyrido[2,3-b]indol-4-yl)phenoxy)propan-1-amine]
11 | ≥ 1000 nM | NCc1cccc(-c2ccnc3[nH]c4ccccc4c23)c1 [Compound I-3, (3-(9H-pyrido[2,3-b]indol-4-yl)phenyl)methanamine]
12 | ≤ 50 nM | NCCNc1cccc(-c2ccnc3[nH]c4ccccc4c23)c1 [Compound I-7, N1-(3-(9H-pyrido[2,3-b]indol-4-yl)phenyl)ethane-1,2-diamine]
13 | ≤ 50 nM | NCCCNc1cccc(-c2ccnc3[nH]c4ccccc4c23)c1 [Compound I-8, N1-(3-(9H-pyrido[2,3-b]indol-4-yl)phenyl)propane-1,3-diamine]
14 | ≤ 50 nM | NCCOc1cccc(-c2ccnc3[nH]c4ccccc4c23)c1 [Compound I-9, 2-(3-(9H-pyrido[2,3-b]indol-4-yl)phenoxy)ethanamine]
